The values below come from patent US4263316A, “N-(1-Methyl-2-pyrrolidinylmethyl)-2,3-dimethoxy-5-methylsulfamoyl benzamide and its derivatives, methods of preparing them and their application to the treatment of troubles of the lower part of the body” (Societe d'Etudes Scientifiques et Industrielles de l'Ile de …, priority 1978, dated 1981).

Read-outs that look alike come from different tables or passages of the source.

Series [1] concerns cystalgias with clear urine in women. Nature of the series: Double blind study in females versus placebo (cystalgias with clear urine). In kind it is in vivo. On the procedure: cystalgias with clear urine in women.
(§1) 2. To check these impressions, two studies were carried out according to the double blind procedure:
Due to the absence of a reference product the activity of the present product was compared with a placebo.

The subject of series [2] is man. Nature of the series: Gaseous cystomanometric study in man (cases of serious neurological bladder). In kind it is in vivo. On the procedure: A person suffering from multiple sclerosis suffered from incontinence, pollakisuria and the very frequent need to urinate. The intramuscular injection of two 100 mg ampules of the compound of the invention delayed the need to urinate for a volume of 150 cm^3, compared with 80 cm^3 before treatment.
A person having psychogenic urinary disorders with incontinence and pollakisuria received two 100 mg ampules of the compound according to the invention by the intramuscular route. They only needed to urinate for a volume of 400 cm^3, compared with 200 cm^3 before treatment. They were able to voluntarily prevent urination for 2 minutes compared with 15 seconds before treatment.

For series [3], the system named is rat. In words: Cystomanometry in the anesthetized rat. The class given is in vivo. On the procedure:
(§2) A pharmacological study of the compound of the invention which consisted of studying its action on the results of cystomanometry in the rabbit and rat was performed under the following conditions: the animals were anesthesized with pentobarbitol and were given artificial respiration. The left outer jugular vein was catheterized to permit the I.V. injection of the studied product. The bladder was then exteriorized and the two ureters were connected and provided with two catheters, one of which was used to measure the intravesical pressure and the other for the vesical filling.
(§3) The vesical was filled by perfusion of 0.9% salt water at a constant flow rate of 40 ml/min for the rabbit and 5 ml/min for the rat.
(§4) The intravesical pressure before perfusion and the perfused water volume were measured.
(§5) The following parameters were studied: the intravesical pressure before perfusion P1 the intravesical pressure at the time of starting urination P2 […]
(§6) the volume of salt water perfused the quantity discharged during urination the residual quantity only in the bladder.
The cystomanometry study was performed under the following conditions: a first perfusion was carried out after stabilising the preparation for 5 minutes a second perfusion was carried out 15 minutes after the first a third perfusion was carried out 5 minutes after the second. […]

Series [4] relates to pelvic spasms. Nature of the series: Treatment of pelvic spasms on probe after urological gynecological surgery. In kind it is in vivo. To be noted: intramuscular or intravenous.
Series [5] can be described thus: Acute toxicity (lethal dose) in Swiss mice, parenteral and oral. The settings on record: mouse, in vivo. On the procedure: The acute toxicity of the compounds of the invention was determined on Swiss mice parenterally, (intravenously, intraperitoneally, subcutaneously) and orally.
Measurement of the lethal doses of N-(1-methyl-2-pyrrolidinylmethyl)-2,3-dimethoxy-5-methylsulphamoyl benzamide (compound 1) and its levorotatory isomer (compound 2) gave the following results: […]

Series [6] is described as follows: Clinical tolerance and ease of oral treatment in both indications. In kind it is in vivo, men and women. An excerpt:
For both the above indications, the ease of oral treatment was appreciated and the tolerance was excellent.

Series [7] has as its system functional disorders of the lower urinary apparatus of men. Nature of the series: Double blind study in males versus lipidosterolic complex extracted from pygeum africanum (prostatism). The class given is in vivo. On the procedure:
functional disorders of the lower urinary apparatus of men and particularly in the case of prostatism
as §1
The study was carried out in comparison with the only possible reference product: lipidosterolic complex extracted from pygeum africanum.

In series [8] the test system is rabbit. In words: Cystomanometry in the anesthetized rabbit. The class given is in vivo. On the procedure:
as §2, §3, §4, §5, §6
The cystomanometry study was performed under the following conditions: a first perfusion was carried out after stabilising the preparation for 5 minutes a second perfusion was carried out 15 minutes after the first a third perfusion was carried out 5 minutes after the second.
The study was performed by chronic and acute administration to the rabbit and acute administration to the rat.
The study of the rabbit was performed in the following manner:
10 male rabbits having an average weight of 2500±100 g were used as the control batch for the chronic administration study, 10 male rabbits with an average weight of 2500±100 g were treated every morning for 8 days with N-(1-methyl-2-pyrrolidinylmethyl)-2,3-dimethoxy-5-methylsulphamoyl benzamide intramuscularly injected at a dosage of 10 mg/kg/day. The final injection was carried out 30 minutes before the experiment […]
for the acute administration study 2 batches of 10 male rabbits with an average weight of 2500±100 g were treated with N-(1-methyl-2-pyrrolidinylmethyl)-2,3-dimethoxy-5-methylsulphamoyl benzamide intravenously administered at doses of 5 and 50 mg/kg.
For the controls and for all the treated batches the first perfusion is used as a standard for the following perfusions (each animal serving as its own control).
In the case of the acute administration of N-(1-methyl-2-pyrrolidinylmethyl)-2,3-dimethoxy-5-methylsulphamoyl benzamide to both the rabbit and the rat the product was injected at the end of the first perfusion.
There was a delay of 15 minutes before the two other perfusions (this was also respected for the controls in order to adhere to the same experimental conditions).

The mark [9] stands for this setting: intravenous, read-out: LD50 I.V.
[10] abbreviates: ip, intraperitoneal, read-out: LD50 I.P.
[11] abbreviates: sc, subcutaneous, read-out: LD50 S.C.

On to `CNS(=O)(=O)c1cc(OC)c(OC)c(C(=O)NCC2CCCN2C)c1` (stereo not drawn) [Compound 1, N-(1-methyl-2-pyrrolidinylmethyl)-2,3-dimethoxy-5-methylsulphamoyl benzamide], for which the superiority over placebo result in series [1] is “very significant”. The vesical tolerance entry in series [2] (man, two cases of serious neurological bladder) is “increase in the vesical tolerance”. Further, the “volume at which need to urinate occurs” value in series [2] (person, multiple sclerosis, intramuscular, two 100 mg ampules, 80 cm^3 before treatment) came to 150 cm^3; in series [2] (person, psychogenic urinary disorders, intramuscular, two 100 mg ampules, 200 cm^3 before treatment) it was 400 cm^3. Moreover, the “time of voluntary prevention of urination” value in series [2] (person, psychogenic urinary disorders, intramuscular, two 100 mg ampules, 15 seconds before treatment) was determined as 2 min. For the same compound, the “same phenomena as in the rabbit (ΔP, perfusion volume)” value in series [3] (acute I.V. 50 and 100 mg/kg) is “not observed”. In addition, the urinary volume entry in series [3] (second and third perfusions, particularly at I.V. dosage of 50 mg/kg) is recorded as “significant increase”. Besides, the “activity in the treatment of pelvic spasms” value in series [4] was “remarkably active”. Further, the LD50 in series [5] (setting [9]) was 130 to 135 mg/kg; in series [5] (setting [10]), 315 to 323 mg/kg; in series [5] (oral, read-out: LD50 P.O.), 992 to 1050 mg/kg; in series [5] (setting [11]), 936 to 960 mg/kg. For the same compound, the tolerance entry in series [6] is recorded as “excellent”. For the same compound, in series [7], the “superiority over lipidosterolic complex extracted from pygeum africanum” value is reported as “statistically significant”. Moreover, the urinary threshold entry in series [8] (anesthetized rabbit) is recorded as “lowers the urinary threshold”. Further, in series [8] (rabbit, acute I.V. 5 and 50 mg/kg), the “significance of differences compared with the controls” value is recorded as “highly significant”. Also, in series [8] (rabbit, acute I.V. 5 and 50 mg/kg, second and third perfusions, compared with chronic administration), the “variations of the same parameters (ΔP, perfusion volume)” value was “Variations in the same direction of the same parameters and in the same proportions”. Further, the “decrease of the perfusion volume compared with the controls” value in series [8] (rabbit, intramuscular, 10 mg/kg/day for 8 days) is “about half”. For the same compound, the “reduction of ΔP (P2 - P1) compared with control batch” value in series [8] (rabbit, intramuscular, 10 mg/kg/day for 8 days, as from the first perfusion) is “about a third”. Also, in series [8] (rabbit, intramuscular, 10 mg/kg/day for 8 days, third perfusion), the “difference of ΔP compared with the controls at the third perfusion” value is given as “reduced at the third perfusion”.

Turning to `CNS(=O)(=O)c1cc(OC)c(OC)c(C(=O)NCC2CCCN2C)c1` (single isomer, unassigned) [Compound 2, Levorotatory N-(1-methyl-2-pyrrolidinylmethyl)-2,3-dimethoxy-5-methylsulphamoyl benzamide], the LD50 was 90 to 94.6 mg/kg in series [5] (setting [9]); 310 to 336 mg/kg in series [5] (setting [10]); 1080 to 1150 mg/kg in series [5] (oral, read-out: LD50 P.O.); 741 to 780 mg/kg in series [5] (setting [11]).

Usually LD50 stands for the dose at which mortality reaches 50%.
